Earlier results in US20240415944A1, “Aqueous aprotinin-containing antiviral pharmaceutical composition” (priority 2021, published 2024).
Read-outs that look alike come from different tables or passages of the source.

Key:
[1] = tested on: kallikrein; settings: manufacturer data
[2] = clinical trials of acute uncomplicated influenza
[3] = tested on: influenza; settings: adult influenza patients
[4] = kallikrein inactivating units per mg

**Q.** With “aprotinin [aprotinin produced by Sigma-Aldrich (USA)]” as the compound, how does the aprotinin activity [1, 4] read?
**A.** The aprotinin activity was 6500 KIU/mg.

**Q.** Which results are given for “aprotinin [aprotinin produced by Wanhua Biochem (China) No. NATE-1892]”?
**A.** aprotinin activity [1, 4]: > 5400 KIU/mg; aprotinin activity [1]: > 3.0 EPU/mg

**Q.** Which “adverse reaction: bronchitis” value [2] does the source give for `COC(=O)OCOc1c2n(ccc1=O)N([C@@H]1c3ccccc3SCc3c1ccc(F)c3F)[C@@H]1COCCN1C2=O` [baloxavir, baloxavir marboxil] here?
**A.** Its value is 3%.

**Q.** What about the “adverse reaction: diarrhea” value [2] of the same compound?
**A.** The value was 3%.

**Q.** What about the “adverse reaction: headache” value [2] of the same compound?
**A.** Its value is 1%.

**Q.** And the “adverse reaction: nausea” value [2]?
**A.** Its value is 2%.

**Q.** What about the “adverse reaction: sinusitis” value [2] of the same compound?
**A.** Its value is 2%.

**Q.** With `CCOC(=O)C1=C[C@@H](OC(CC)CC)[C@H](NC(C)=O)[C@@H](N)C1` [Oseltamivir, oseltamivir] as the compound, how does the “mean time to relief of clinical symptoms” value [3] read?
**A.** The value was 97.5 h.

**Q.** And the “risk of nausea (RR)” value [3]?
**A.** The value was 1.60.

**Q.** What about the “risk of vomiting (RR)” value [3] of the same compound?
**A.** The value was 2.43.

**Q.** And the “acceleration of time to relief of clinical symptoms” value ([3]; versus placebo)?
**A.** Its value is 17.8 to 25.2 h.
